≈ marks a conversion by molar mass, not a printed value.
Legend:
Type in all cases: functional, Salmonella enterica subsp. enterica serovar Typhi
[1] = tested on: Salmonella enterica subsp. enterica; experiment: Antimicrobial activity against multidrug-resistant Salmonella enterica Serovar Typhi isolate DT48 harboring DNA gyrase A S83F mutation by disk diffusion method
[2] = tested on: Salmonella enterica subsp. enterica; experiment: Antimicrobial activity against Salmonella enterica Serovar Typhi isolate BL 21801 harboring DNA gyrase A S83F mutation by disk diffusion method in presence of plasmid mediated quinolone-resistant gene qnrA and qnrS
[3] = tested on: Salmonella enterica subsp. enterica; experiment: Antimicrobial activity against multidrug-resistant Salmonella enterica Serovar Typhi isolate DT60 harboring DNA gyrase A S83F mutation by disk diffusion method
[4] = tested on: Salmonella enterica subsp. enterica; experiment: Antimicrobial activity against multidrug-resistant Salmonella enterica Serovar Typhi isolate CT118 harboring DNA gyrase A S83F mutation by disk diffusion method in presence of plasmid mediated quinolone-resistant gene qnrA and qnrS
[5] = tested on: Salmonella enterica subsp. enterica; experiment: Antimicrobial activity against Salmonella enterica Serovar Typhi isolate AG182 harboring DNA gyrase A S83F mutation by disk diffusion method
[6] = tested on: Salmonella enterica subsp. enterica; experiment: Antimicrobial activity against multidrug-resistant Salmonella enterica Serovar Typhi isolate DT37 harboring DNA gyrase A S83F mutation by disk diffusion method
[7] = tested on: Salmonella enterica subsp. enterica; experiment: Antimicrobial activity against multidrug-resistant Salmonella enterica Serovar Typhi isolate AG168 harboring DNA gyrase A S83F mutation by disk diffusion method
[8] = tested on: Salmonella enterica subsp. enterica; experiment: Antimicrobial activity against multidrug-resistant Salmonella enterica Serovar Typhi isolate AG6 harboring DNA gyrase A S83F mutation by disk diffusion method
[9] = tested on: Salmonella enterica subsp. enterica; experiment: Antimicrobial activity against multidrug-resistant Salmonella enterica Serovar Typhi isolate ipt 32 harboring DNA gyrase A S83F mutation by disk diffusion method
[10] = tested on: Salmonella enterica subsp. enterica; experiment: Antimicrobial activity against Salmonella enterica Serovar Typhi isolate CT145 harboring DNA gyrase A S83F mutation by disk diffusion method in presence of plasmid mediated quinolone-resistant gene qnrA and qnrS
[11] = tested on: Salmonella enterica subsp. enterica; experiment: Antimicrobial activity against multidrug-resistant Salmonella enterica Serovar Typhi isolate DT3 harboring DNA gyrase A S83F mutation by disk diffusion method in presence of plasmid mediated quinolone-resistant gene qnrA and qnrS
[12] = tested on: Salmonella enterica subsp. enterica; experiment: Antimicrobial activity against multidrug-resistant Salmonella enterica Serovar Typhi isolate BL 21095 harboring DNA gyrase A S83F mutation by disk diffusion method in presence of plasmid mediated quinolone-resistant gene qnrA and qnrS
[13] = tested on: Salmonella enterica subsp. enterica; experiment: Antimicrobial activity against multidrug-resistant Salmonella enterica Serovar Typhi isolate DT9 harboring DNA gyrase A S83F mutation by disk diffusion method
[14] = tested on: Salmonella enterica subsp. enterica; experiment: Antimicrobial activity against Salmonella enterica Serovar Typhi isolate nar 108 harboring DNA gyrase A S83F mutation by disk diffusion method in presence of plasmid mediated quinolone-resistant gene qnrA and qnrS
[15] = tested on: Salmonella enterica subsp. enterica; experiment: Antimicrobial activity against multidrug-resistant Salmonella enterica Serovar Typhi isolate ipt 33 harboring DNA gyrase A S83F mutation by disk diffusion method
[16] = tested on: Salmonella enterica subsp. enterica; experiment: Antimicrobial activity against multidrug-resistant Salmonella enterica Serovar Typhi isolate nar 51 harboring DNA gyrase A S83F mutation by disk diffusion method
[17] = tested on: Salmonella enterica subsp. enterica; experiment: Antimicrobial activity against multidrug-resistant Salmonella enterica Serovar Typhi isolate DT49 harboring DNA gyrase A S83F mutation by disk diffusion method
[18] = tested on: Salmonella enterica subsp. enterica; experiment: Antimicrobial activity against Salmonella enterica Serovar Typhi isolate D43 harboring DNA gyrase A S83Y mutation by disk diffusion method in presence of plasmid mediated quinolone-resistant gene qnrA and qnrS
[19] = tested on: Salmonella enterica subsp. enterica; experiment: Antimicrobial activity against multidrug-resistant Salmonella enterica Serovar Typhi isolate DT15 harboring DNA gyrase A S83F mutation by disk diffusion method
[20] = tested on: Salmonella enterica subsp. enterica; experiment: Antimicrobial activity against multidrug-resistant Salmonella enterica Serovar Typhi isolate nar 104 harboring DNA gyrase A S83F mutation by disk diffusion method in presence of plasmid mediated quinolone-resistant gene qnrA and qnrS
[21] = tested on: Salmonella enterica subsp. enterica; experiment: Antimicrobial activity against multidrug-resistant Salmonella enterica Serovar Typhi isolate nar 28 harboring DNA gyrase A S83F mutation by disk diffusion method
[22] = tested on: Salmonella enterica subsp. enterica; experiment: Antimicrobial activity against Salmonella enterica Serovar Typhi isolate AG169 harboring DNA gyrase A S83F mutation by disk diffusion method
[23] = tested on: Salmonella enterica subsp. enterica; experiment: Antimicrobial activity against multidrug-resistant Salmonella enterica Serovar Typhi isolate AG7 harboring DNA gyrase A S83F mutation by disk diffusion method
[24] = tested on: Salmonella enterica subsp. enterica; experiment: Antimicrobial activity against Salmonella enterica Serovar Typhi isolate CT144 harboring DNA gyrase A D87G mutation by disk diffusion method in presence of plasmid mediated quinolone-resistant gene qnrA and qnrS
[25] = tested on: Salmonella enterica subsp. enterica; experiment: Antimicrobial activity against multidrug-resistant Salmonella enterica Serovar Typhi isolate DT42 harboring DNA gyrase A S83F mutation by disk diffusion method
[26] = tested on: Salmonella enterica subsp. enterica; experiment: Antimicrobial activity against Salmonella enterica Serovar Typhi isolate E86 harboring DNA gyrase A S83F mutation by disk diffusion method in presence of plasmid mediated quinolone-resistant gene qnrA and qnrS
[27] = tested on: Salmonella enterica subsp. enterica; experiment: Antimicrobial activity against multidrug-resistant Salmonella enterica Serovar Typhi isolate AG17 harboring DNA gyrase A S83F mutation by disk diffusion method
[28] = tested on: Salmonella enterica subsp. enterica; experiment: Antimicrobial activity against Salmonella enterica Serovar Typhi isolate AG259 harboring DNA gyrase A S83F mutation by disk diffusion method in presence of plasmid mediated quinolone-resistant gene qnrA and qnrS
[29] = tested on: Salmonella enterica subsp. enterica; experiment: Antimicrobial activity against multidrug-resistant Salmonella enterica Serovar Typhi isolate DT54 harboring DNA gyrase A S83F mutation by disk diffusion method
[30] = tested on: Salmonella enterica subsp. enterica; experiment: Antimicrobial activity against multidrug-resistant Salmonella enterica Serovar Typhi isolate AG176 harboring DNA gyrase A S83F mutation by disk diffusion method
[31] = tested on: Salmonella enterica subsp. enterica; experiment: Antimicrobial activity against multidrug-resistant Salmonella enterica Serovar Typhi isolate AG5 harboring DNA gyrase A S83F mutation by disk diffusion method
[32] = tested on: Salmonella enterica subsp. enterica; experiment: Antimicrobial activity against multidrug-resistant Salmonella enterica Serovar Typhi isolate CT61 harboring DNA gyrase A S83F mutation by disk diffusion method in presence of plasmid mediated quinolone-resistant gene qnrA and qnrS
[33] = tested on: Salmonella enterica subsp. enterica; experiment: Antimicrobial activity against multidrug-resistant Salmonella enterica Serovar Typhi isolate AG152 harboring DNA gyrase A S83F and D87G mutation by disk diffusion method in presence of plasmid mediated quinolone-resistant gene qnrA and qnrS
[34] = tested on: Salmonella enterica subsp. enterica; experiment: Antimicrobial activity against Salmonella enterica Serovar Typhi isolate CT142 harboring DNA gyrase A S83F mutation by disk diffusion method in presence of plasmid mediated quinolone-resistant gene qnrA and qnrS
[35] = tested on: Salmonella enterica subsp. enterica; experiment: Antimicrobial activity against multidrug-resistant Salmonella enterica Serovar Typhi isolate AG16 harboring DNA gyrase A S83F mutation by disk diffusion method
[36] = tested on: Salmonella enterica subsp. enterica; experiment: Antimicrobial activity against multidrug-resistant Salmonella enterica Serovar Typhi isolate nar 102 harboring DNA gyrase A S83F mutation by disk diffusion method in presence of plasmid mediated quinolone-resistant gene qnrA and qnrS
[37] = tested on: Salmonella enterica subsp. enterica; experiment: Antimicrobial activity against multidrug-resistant Salmonella enterica Serovar Typhi isolate B111 harboring DNA gyrase A S83Y mutation by disk diffusion method in presence of plasmid mediated quinolone-resistant gene qnrA and qnrS
[38] = tested on: Salmonella enterica subsp. enterica; experiment: Antimicrobial activity against multidrug-resistant Salmonella enterica Serovar Typhi isolate AG8 harboring DNA gyrase A S83F mutation by disk diffusion method
[39] = tested on: Salmonella enterica subsp. enterica; experiment: Antimicrobial activity against Salmonella enterica Serovar Typhi isolate AG258 harboring DNA gyrase A S83F mutation by disk diffusion method in presence of plasmid mediated quinolone-resistant gene qnrA and qnrS
[40] = tested on: Salmonella enterica subsp. enterica; experiment: Antimicrobial activity against Salmonella enterica Serovar Typhi isolate AG3 harboring DNA gyrase A S83F mutation by disk diffusion method

Row | SMILES | MIC [1] [µg/mL] | MIC [2] [µg/mL] | MIC [3] [µg/mL] | MIC [4] [µg/mL] | MIC [5] [µg/mL] | MIC [6] [µg/mL] | MIC [7] [µg/mL] | MIC [8] [µg/mL] | MIC [9] [µg/mL] | MIC [10] [µg/mL] | MIC [11] [µg/mL] | MIC [12] [µg/mL] | MIC [13] [µg/mL] | MIC [14] [µg/mL] | MIC [15] [µg/mL] | MIC [16] [µg/mL] | MIC [17] [µg/mL] | MIC [18] [µg/mL] | MIC [19] [µg/mL] | MIC [20] [µg/mL] | other results
1 | O=C(O)c1cn(C2CC2)c2cc(N3CCNCC3)c(F)cc2c1=O [CIPROFLOXACIN] | 0.5 (≈ 1.51 µM) | 0.25 | 0.25 (≈ 0.754 µM) | 0.38 | 0.38 (≈ 1.15 µM) | 0.5 (≈ 1.51 µM) | 0.38 (≈ 1.15 µM) | 0.5 (≈ 1.51 µM) | 0.5 (≈ 1.51 µM) | 0.38 | 0.5 | 0.25 | 0.5 (≈ 1.51 µM) | 0.25 | 0.5 (≈ 1.51 µM) | 0.5 (≈ 1.51 µM) | 0.5 (≈ 1.51 µM) | 0.25 | 0.5 (≈ 1.51 µM) | 0.25 | MIC [21]: 0.5 µg/mL (≈ 1.51 µM); MIC [22]: 0.38 µg/mL (≈ 1.15 µM); MIC [23]: 0.5 µg/mL (≈ 1.51 µM); MIC [24]: 0.25 µg/mL; MIC [25]: 0.5 µg/mL (≈ 1.51 µM); MIC [26]: 0.25 µg/mL; MIC [27]: 0.5 µg/mL (≈ 1.51 µM); MIC [28]: 0.38 µg/mL; MIC [29]: 0.5 µg/mL (≈ 1.51 µM); MIC [30]: 0.25 µg/mL (≈ 0.754 µM); MIC [31]: 0.5 µg/mL (≈ 1.51 µM); MIC [32]: 0.125 µg/mL; MIC [33]: 0.38 µg/mL; MIC [34]: 0.38 µg/mL; MIC [35]: 0.38 µg/mL (≈ 1.15 µM); MIC [36]: 0.125 µg/mL; MIC [37]: 0.25 µg/mL; MIC [38]: 0.5 µg/mL (≈ 1.51 µM); MIC [39]: 0.5 µg/mL
2 | CCn1cc(C(=O)O)c(=O)c2ccc(C)nc21 [NALIDIXIC ACID] | > 256 | > 256 | > 256 | > 256 | > 256 | > 256 | > 256 | > 256 | 256 (≈ 1100 µM) | 128 | > 256 | > 256 | > 256 | 256 | 256 (≈ 1100 µM) | 256 (≈ 1100 µM) | > 256 | > 256 | > 256 | 256 | MIC [40]: > 256 µg/mL; MIC [21]: 256 µg/mL (≈ 1100 µM); MIC [22]: > 256 µg/mL; MIC [23]: > 256 µg/mL; MIC [24]: > 256 µg/mL; MIC [25]: > 256 µg/mL; MIC [26]: > 256 µg/mL; MIC [27]: > 256 µg/mL; MIC [28]: > 256 µg/mL; MIC [29]: > 256 µg/mL; MIC [30]: > 256 µg/mL; MIC [31]: > 256 µg/mL; MIC [32]: 256 µg/mL; MIC [33]: > 256 µg/mL; MIC [34]: > 256 µg/mL; MIC [35]: > 256 µg/mL; MIC [36]: 128 µg/mL; MIC [37]: > 256 µg/mL; MIC [38]: > 256 µg/mL; MIC [39]: > 256 µg/mL
